Where a name gives a salt, the structure may show the parent alone.

System in one series: not given
Assay: not given
Conditions: not given
On to `Cl.Cl.Clc1ncc(OC[C@@H]2CCCN2)cc1Br` [Example 23, 5-Bromo-6-chloro-3-(2-(S)-pyrrolidinylmethoxy)pyridine Dihydrochloride], for which the melting point fell in the range of 264 to 268 °C.

For `C=CCc1cc(OC[C@@H]2CCCN2C)cnc1Cl.Cl` [Example 184, 5-Allyl-6-chloro-3-(1-methyl-2-(S)-pyrrolidinylmethoxy)pyridine Hydrochloride], the melting point fell in the range of 150 to 152 °C.

Compound `C=CCc1cc(OC[C@H]2CCCN2)cnc1Cl.Cl` [Example 185, 5-Allyl-6-chloro-3-(2-(R)-pyrrolidinylmethoxy)pyridine Hydrochloride] registered a melting point of 90 to 92 °C.

The compound `Cl.Clc1ncc(OC[C@H]2CCN2)cc1-c1ccccc1` [Example 186, 3-(2-(R)-Azetidinylmethoxy)-6-chloro-5-phenylpyridine Hydrochloride] had a melting point of 143 to 145 °C.

The compound `C=Cc1ncc(OC[C@@H]2CCCN2)cc1C.Cl` [Example 187, 6-Ethenyl-5-methyl-3-(2-(S)-pyrrolidinylmethoxy)pyridine Hydrochloride] showed a melting point of 168 to 170 °C.

Regarding `C=Cc1ncc(OC[C@@H]2CCCN2C)cc1C.Cl` [Example 188, 6-Ethenyl-5-methyl-3-(1-methyl-2-(S)-pyrrolidinylmethoxy)pyridine Hydrochloride], the melting point was 50 °C (dec.).

In turn, `CN1CC[C@@H]1COc1cnc(Cl)c(-c2ccccc2)c1.Cl` [Example 189, 6-Chloro-3-(1-methyl-2-(R)-azetidinylmethoxy)-5-phenylpyridine Hydrochloride] displayed a melting point of 173 to 175 °C.

The compound `C#Cc1cc(OC[C@H]2CCN2)cnc1Cl.Cl` [Example 190, 3-(2-(R)-Azetidinylmethoxy)-6-chloro-5-ethynylpyridine Hydrochloride] gave a melting point of 155 to 157 °C.

`C=Cc1cc(OC[C@@H]2CCCN2C)cnc1Cl.Cl` [Example 192, 6-Chloro-5-ethenyl-3-(1-methyl-2-(S)-pyrrolidinylmethoxy)pyridine Hydrochloride] registered a melting point of 182 to 184 °C.

On to `COCCOc1cncc(OC[C@@H]2CCCN2)c1.Cl.Cl` [Example 197, 5-Methoxyethoxy-3-(2-(S)-pyrrolidinylmethoxy)pyridine Dihydrochloride], for which the melting point was 182 to 184 °C.

In turn, `Cl.Cl.c1ccc(COc2cncc(OC[C@@H]3CCN3)c2)cc1` [Example 199, 3-(2-(S)-Azetidinylmethoxy)-5-benzyloxypyridine Dihydrochloride] registered a melting point of 172 to 174 °C.

As to `CN1CC[C@H]1COc1cncc(OCc2ccccc2)c1.Cl` [Example 200, 5-Benzyloxy-3-(1-methyl-2-(S)-azetidinylmethoxy)pyridine Hydrochloride], the melting point is 132 to 134 °C.

Compound `C=Cc1ccc(OC[C@@H]2CCN2)cn1.Cl.Cl` [Example 201, 3-(2-(S)-Azetidinylmethoxy)-6-ethenylpyridine Dihydrochloride] gave a melting point of 102 to 104 °C.

On to `C=Cc1ccc(OC[C@@H]2CCN2C)cn1.Cl.Cl` [Example 202, 6-Ethenyl-3-(1-methyl-2-(S)-azetidinylmethoxy)pyridine Dihydrochloride], for which the melting point was 105 to 107 °C.

A further series deals with neuronal nicotinic cholinergic channels in IMR-32 cells (Homo sapiens, UniProt P30926+P32297). The series can be described thus: 86Rb+ efflux in IMR-32 cells (activation, or inhibition of efflux elicited by (S)-nicotine). Type of series: cell-based. To be noted: 86Rb+ efflux; percent relative to the response elicited by 100 μM (S)-nicotine. An excerpt: For the purpose of directly evaluating the ability of test compounds to functionally activate or inhibit certain subtypes of neuronal nicotinic cholinergic channels, an assay to determine ^86Rb^+Efflux in IMR-32 cells was employed (Protocol B below).
B. Protocols for the Determination of Functional Effects of Cholinerzic Channel Receptor Ligands on Synaptic Transmission
Cells of the IMR-32 human neuroblastoma clonal cell line (ATCC, Rockville, Md.) were maintained in a log phase of growth according to established procedures (Lukas, 1993). Experimental cells were seeded at a density of 500,000 cells/ml into a 24-well tissue culture dish. Plated cells were allowed to proliferate for at least 48 hours before loading with 2 μCi/ml of ^86Rb^+ (35 Ci/mmol) overnight at 37° C. The ^86Rb^+ efflux assays were performed according to previously published protocols (Lukas, R. J., J. Pharmacol. Exp. Ther., 265: 294-302, 1993) except serum-free Dulbecco's Modified Eagle's Medium was used during the ^86Rb^+ loading, rinsing, and agonist-induced efflux steps.
EC50 data and maximal responses (reported as percent relative to the response elicited by 100 μM (S)-nicotine) are shown for selected compounds of the invention. The inhibition data (given for a larger number of compounds) reflect inhibition of the efflux elicited by 100 μM (S)-nicotine for either a single dose (% inhibition at 1 μM or at 10 μM) or over a range of doses (IC50 of inhibition). […] This finding is in agreement with the results of others who have linked dopamine release, which is dependent upon the ion flux in synaptic transmission, to binding at nicotinic receptors (cf., for example, Lippiello and Caldwell, U.S. Pat. No. 5,242,935, issued Sep. 7, 1993; Caldwell and Lippiello, U.S. Pat. No. 5,248,690, issued Sep. 28, 1993; and Wonnacott et al., Prog. Brain Res., 79: 157-163 (1989)).
In the case of `Cl.Cl.c1ccc(-c2cncc(OC[C@@H]3CCN3)c2)cc1` [Example 56, 5-Phenyl-3-(2-(S)-azetidinylmethoxy)pyridine Dihydrochloride], the IMR-32 maximal response came to 20%.

Staying with this series, now noted: IMR-32; 86Rb+ efflux; percent relative to the response elicited by 100 μM (S)-nicotine; read-out: IMR-32 maximal response.
Consider `Clc1ncc(OC[C@@H]2CCN2)cc1-c1ccccc1` [Example 67, 5-Phenyl-6-chloro-3-(2-(S)-azetidinylmethoxy)pyridine Hidrochloride], for which the Emax stood at 90%.

On to `CN1CCC[C@@H]1COc1cnc(Cl)c(-c2ccccc2)c1` [Example 69, 5-Phenyl-6-chloro-3-(1-methyl-2-(R)-pyrrolidinylmethoxy)pyridine Dihydrochloride], for which the Emax was 6%.

With `Clc1ncc(OC[C@H]2CCCN2)cc1C=Cc1ccncc1` [Example 81, 5-(2-(4-Pyridinyl)ethenyl)-6-chloro-3-(2-(R)-pyrrolidinylmethoxy)pyridine Dihydrochloride], the Emax was 32%.

Consider `C(=C\c1cncc(OC[C@H]2CCCN2)c1)/c1ccncc1` [Example 86, 5-(2-(4-Pyridinyl)ethenyl)-3-(2-(R)-pyrroylidinylmethoxy)pyridine Trihydrochloride], for which the Emax stood at 44%.

In the case of `Clc1ncc(OC[C@@H]2CCN2)cc1C=Cc1ccncc1` [Example 89, 5-(2-(4-Pyridinyl)ethenyl)-6-chloro-3-(2-(S)-azetidnylmethoxy)pyridine Citric Acid Salt], the Emax turned out to be 72%.

In the case of `O=C(NCc1cc(OC[C@@H]2CCN2)cnc1Cl)c1ccccc1` [Example 92, 3-(2-(S)-Azetidinylmethoxy)-5-(N-benzoylamino)methyl-6-chloropyridine Hydrochloride], the Emax came out at 25%.

With `c1csc(-c2cncc(OC[C@@H]3CCN3)c2)c1` [Example 154, 3-(2-(S)-Azetidinylmethoxy)-5-(2-thienyl)pyridine Dihydrochloride], the Emax was determined as 1.5%.

With `C=CCc1cncc(OC[C@@H]2CCN2)c1` [Example 181, 5-Allyl-3-(2-(S)-azetidinylmethoxy)pyridine Hydrochloride], the Emax is 82%.

Turning to `C=CCc1cc(OC[C@@H]2CCCN2)cnc1Cl` [Example 183, 5-Allyl-6-chloro-3-(2-(S)-pyrrolidinylmethoxy)pyridine Hydrochloride], the Emax stood at 110%.

On to `CC(=O)NCc1cc(OC[C@@H]2CCN2)cnc1Cl` [Example 206, 5-Acetamidomethyl-3-(2-(S)-azetidinylmethoxy)-6-chloropyridine Dihydrochloride], for which the Emax came out at 11%.

The series is the same for the next values; noted with them: IMR-32; inhibition of the efflux elicited by 100 μM (S)-nicotine; single dose 1 μM.
For `CCCCC#Cc1cncc(OC[C@@H]2CCCN2C)c1` [Example 4, 5-Hexynyl-3-(1-methyl-2-(S)-pyrrolidinylmethoxy)pyridine Dihydrochloride], testing at 1 µM gave an inhibition of 55%.

The compound `CN1CCC[C@H]1COc1cncc(C=Cc2ccncc2)c1` [Example 13, 5-(2-(4-Pyridinyl)ethenylyl)-3-((1-methyl-2-(S)-pyrrolidinylmethoxy)pyridine Triihydrochloride] registered an inhibition at 1 µM of 50%.

Take `CN1CCC[C@H]1COc1cncc(C#CCCCC#N)c1` [Example 14, (5-(5-Cyano-1-pentynyl-3-(1-methyl-2-(S)-pyrrolidinylmethoxy)pyridine Dihydrochloride]: the inhibition at 1 µM was 50%.

The compound `COC(=O)CCc1cncc(OC[C@@H]2CCCN2C)c1` [Example 15, 5-(2-(Methoxycarbonyl)ethyl)-3-(1-methyl-2-(S)-pyrrolidinylmethoxy)pyridine Dihydrochloride] registered an inhibition at 1 µM of 16%.

`COC(=O)C=Cc1cncc(OC[C@@H]2CCCN2C)c1` [Example 16, 5-(2-(Methoxycarbonyl)ethenyl-3-(1-methyl-2-(S)-pyrrolidinylmethoxy)pyridine Dihydrochloride] yielded an inhibition at 1 µM of 6%.

Compound `CN1CCC[C@H]1COc1cncc(C#CCCCc2ccccc2)c1` [Example 17, 5-(5-Phenyl-1-pentynyl)-3-(1-methyl-2-(S)-pyrrolidinylmethoxy)pyridine Dihydrochloride] yielded an inhibition at 1 µM of 32%.

In turn, `CCCC(=O)C=Cc1cncc(OC[C@@H]2CCCN2C)c1` [Example 22, 5-(3-oxo-1-Hexenyl)-3-(1-methyl-2-(S)-pyrrolidinylmethoxy)pyridinine Dihydrochloride] had an inhibition at 1 µM of 44%.

As for `Cl.Cl.Clc1ncc(OC[C@@H]2CCCN2)cc1Br` [Example 23, 5-Bromo-6-chloro-3-(2-(S)-pyrrolidinylmethoxy)pyridine Dihydrochloride], the inhibition at 1 µM was found to be 27%.

`CN1CCC[C@H]1COc1cncc(C#CCCCCO)c1` [Example 28, 5-(6-Hydroxy-1-hexynyl)-3-(1-methyl-2-(S)-pyrrolidipylmethoxy)pyridine Dihydrochloride] came in with an inhibition at 1 µM of 20%.

Regarding `CN1CCC[C@H]1COc1cncc(C#CC(C)(C)C)c1` [Example 47, 5-(3,3-Dimethylbutynyl)-3-(1-methyl-2-(S)-pyrrolidinylmethoxy)pyridine Dihydrochloride], 1 µM produced 66% inhibition.

Compound `CCCCCCC#Cc1cncc(OC[C@@H]2CCCN2C)c1` [Example 49, 5-Octynyl-3-(1-methyl-2-(S)-pyrrolidinylmethoxy)pyridine Dihydrochloride] showed an inhibition at 1 µM of 33%.

Staying with this series, now noted: IMR-32; inhibition of the efflux elicited by 100 μM (S)-nicotine; single dose 10 μM.
`COC(=O)CCc1cncc(OC[C@@H]2CCCN2C)c1` [Example 15, 5-(2-(Methoxycarbonyl)ethyl)-3-(1-methyl-2-(S)-pyrrolidinylmethoxy)pyridine Dihydrochloride]: testing at 10 µM gave an inhibition of 83%.

`CN1CCC[C@H]1COc1cncc(C#CCCCc2ccccc2)c1` [Example 17, 5-(5-Phenyl-1-pentynyl)-3-(1-methyl-2-(S)-pyrrolidinylmethoxy)pyridine Dihydrochloride] showed an inhibition at 10 µM of 100%.

Staying with this series, now noted: inhibition of the efflux elicited by 100 μM (S)-nicotine; single dose 1 μM.
With `Cl.Cl.c1ccc(-c2cncc(OC[C@@H]3CCN3)c2)cc1` [Example 56, 5-Phenyl-3-(2-(S)-azetidinylmethoxy)pyridine Dihydrochloride], the “% Inhibition @ 1 μM” value is reported as 16%.

The values are drawn from patent US6437138B1, “3-pyridyloxymethyl heterocyclic ether compounds useful in controlling chemical synaptic transmission” (priority 1996, dated 2002).
